Experimental data from patent US11185523B2, “Use of bipolar trans carotenoids with chemotherapy and radiotherapy for treatment of cancer” (DIFFUSION PHARMACEUTICALS LLC, priority 2016, dated 2021).
“Also recorded” adds a separate entry of the source.

Assays:
Myocardial Infarction = assay: Pre-clinical efficacy study: Myocardial Infarction; format: in vivo; settings: Pig
Description: (§1) It has also been determined that several non-cancer disorders are beneficially treated utilizing an administration regimen of a bipolar trans carotenoid such as TSC, as described below.

[1] = Stability of TSC versus pH; format: physicochemical; settings: dependence on pH
Procedure: Mannitol can be used to adjust osmolality and its concentration varies depending on the concentration of other ingredients. The glycine is held constant. […] The use of glycine is compatible with lyophilization. Alternatively, the TSC and cyclodextrin is formulated using a 50 mM bicarbonate or other buffers, in place of the glycine.

DMBA breast tumors = assay: DMBA breast tumor model, TSC before chemotherapy; format: in vivo; settings: for tumor growth, timing of TSC injection: Day 2, FIG. 5
Procedure: Breast tumors were induced through injection of DMBA (dimethylbenzantracene) under the mammary tissue of female rats. The tumors usually grow in most rats and reach measurable conditions after 10 days.
The following studies used a method in which a 3-mL syringe is filled first with 1 ml of DMBA dissolved in sunflower seed oil (20 mg DMBA per mL of solution). Following that, 2 mL's of air are pulled into the syringe. The needle of the syringe is then inserted under the mammary tissue near a hind leg and the air in the syringe is carefully injected. The injection of the air forms a “pocket”, and then the 1 mL of DMBA solution is injected into that pocket.
After the tumors have grown up (about 10 days), their volumes are estimated by measuring the diameter (d) and the length (L) of the football-shaped tumors formed. This is done using calipers after feeling the tumor with one's fingers. To estimate the volume of the tumor, you multiply the diameter squared times the length and divide by 2: Tumor volume (in mm3)={(d in mm)^22}×(L in mm)
TSC or saline (controls) was injected in the tail vein of the rats at a volume of 0.1 mL and a dose of 0.25 mg/kg TSC about 1-2 hours before the chemotherapeutic agent was injected intraperitoneally (IP) in the rats.
In order to understand which dosages are efficacious when used with chemotherapy, a rat model of breast tumors was used. The model involves injecting the chemical dimethylbenzanthracene (DMBA) under the mammary gland of a female Sprague-Dawley rat. After a few days, tumors begin to grow and can be measured by feeling the football-shaped tumor under the skin and measured using calipers.

Parkinson's Disease = assay: Pre-clinical efficacy study: Parkinson's Disease; format: in vivo; settings: Rat
Description: as §1

Hemorrhagic Shock = assay: Pre-clinical efficacy study: Hemorrhagic Shock; format: in vivo
Description: as §1

Wound Healing = assay: Pre-clinical efficacy study: Wound Healing; format: in vivo; settings: Pig
Description: as §1

Memory Recall = assay: Pre-clinical efficacy study: Memory Recall; format: in vivo; settings: Rat
Description: as §1

Ischemic Stroke = assay: Pre-clinical efficacy study: Ischemic Stroke; format: in vivo
Description: as §1

[2] = Absorption into blood stream after intramuscular injection with gamma cyclodextrin; format: in vivo, rat; settings: injected intramuscularly, rats
Description: The use of gamma-cyclodextrin with TSC increases the solubility of TSC in water by 3-7 times. […] The incorporation of the gamma cyclodextrin also allows for TSC to be absorbed into the blood stream when injected intramuscularly. Absorption is quick, and efficacious blood levels of TSC are reached quickly (as shown in rats).

Hemorrhagic Stroke = assay: Pre-clinical efficacy study: Hemorrhagic Stroke; format: in vivo; settings: Rat
Description: as §1

With `CC(/C=C/C=C(\C)C(=O)[O-])=C\C=C\C=C(C)\C=C\C=C(/C)C(=O)[O-].[Na+].[Na+]` [TSC, trans sodium crocetinate] the “Best Dosage” value (Myocardial Infarction) was “Low”, the stability [1] was “more stable at higher pHs” and the “effect on tumor volume with cisplatin” value (DMBA breast tumors; high dose (for rats) 0.25 mg/kg TSC 2 hours before 1 mg/kg cisplatin IP on days 0, 4, 11, 18, FIG. 2) was “efficacious; also recorded: significant improvement in tumor volume over the control”. For the same compound, the “tumor growth, timing of TSC injection” value (DMBA breast tumors; high dose TSC 2 hours before gemcitabine 7.5 mg/kg) was “best and best results”, the “pseudoprogression (increase in tumor volume on day 7)” value (DMBA breast tumors; high dose TSC 2 hours prior to doxorubicin) was “Pseudoprogression was also seen” and the “tumor growth with doxorubicin” value (DMBA breast tumors; high dose TSC 2 hours prior to doxorubicin, FIG. 7) was “marked reduction in tumor growth in comparison with the control group”. The “pseudoprogression (increase in tumor volume on day 7)” value (DMBA breast tumors; high dose TSC 2 hours prior to temozolomide, FIG. 6) was “pseudoprogression was seen”, the pseudoprogression (DMBA breast tumors; high dose TSC 2 hrs. prior to paclitaxel) was “Pseudoprogression was also seen” and the “tumor growth with paclitaxel” value (DMBA breast tumors; high dose TSC 2 hrs. prior to paclitaxel, Days 0, 4, 8, 14, FIG. 8) was “marked reduction in tumor growth in comparison with the control group”. The “tumor growth, timing of TSC injection” value (DMBA breast tumors; high dose TSC concurrently, 1 hour before or 2 hours before gemcitabine 7.5 mg/kg) was “reduced tumor growth relative to control”, the “tumor growth with gemcitabine” value (DMBA breast tumors; high dose of TSC 2 hours before 5 mg/kg gemcitabine IP on days 0, 3, FIG. 4) was “substantially less tumor growth than those in the control group” and the “effect on tumor volume with gemcitabine” value (DMBA breast tumors; high dose of TSC 2 hours before 10 mg/kg gemcitabine IP on days 0, 3, day 3, FIG. 3) was “efficacious; also recorded: significant decrease in tumor volume”. The “Best Dosage” value (Parkinson's Disease) was “High”, the “Best Dosage” value (Hemorrhagic Shock; Pig) was “Low” and the “Best Dosage” value (Hemorrhagic Shock; Rat, low dose (for rats) 0.1 mg/kg, high 0.25 mg/kg) was “Low”. The “Best Dosage” value (Wound Healing) was “High”, the “Best Dosage” value (Memory Recall) was “High” and the “Best Dosage” value (Ischemic Stroke; Rabbit) was “Low”. For the same compound, the “Best Dosage” value (Ischemic Stroke; Rat) was “Low”, the “absorption into the blood stream” value [2] was “quick” and the “Best Dosage” value (Hemorrhagic Stroke) was “Low”.
